# System: rice blast
# Format: cell-based
# Conditions: 1,000 μl of 2,000 ppm test solution on oatmeal culture medium; 8 mm rice blast disc; 25° C. for 7 days; elongation length of hyphae vs without treatment
smiles,measurement,value
"COc1nn(-c2ccccn2)c(F)c1C(F)(F)F [Example 2, 5-fluoro-3-methoxy-1-(2-pyridyl)-4-trifluoromethylpyrazole]",Preventive value,80
